Tested on: Alternaria solani
Assay: Alternaria test (tomatoes) / preventive
Assay type: in vivo, Alternaria solani on tomatoes
Details: single active, preventive spray, evaluated 3 days after inoculation
Text: The expected activity for a given combination of two active compounds can be calculated as follows (cf. Colby, S. R., “Calculating Synergistic and Antagonistic Responses of Herbicide Combinations”, Weeds 1967, 15, 20-22): If • X is the efficacy when active compound A is applied at an application rate of m ppm (or g/ha), • Y is the efficacy when active compound B is applied at an application rate of n ppm (or g/ha), • E is the efficacy when the active compounds A and B are applied at application rates of m and n ppm (or g/ha), respectively, and then
The degree of efficacy, expressed in % is denoted. 0% means an efficacy which corresponds to that of the control while an efficacy of 100% means that no disease is observed.
If the actual fungicidal activity exceeds the calculated value, then the activity of the combination is superadditive, i.e. a synergistic effect exists. In this case, the efficacy which was actually observed must be greater than the value for the expected efficacy (E) calculated from the abovementioned formula.
To produce a suitable preparation of active compound, 1 part by weight of active compound is mixed with the stated amounts of solvent and emulsifier, and the concentrate is diluted with water to the desired concentration. To test for preventive activity, young plants are sprayed with the preparation of active compound at the stated rate of application. After the spray coating has dried on, the plants are inoculated with an aqueous spore suspension of Alternaria solani. The plants are then placed in an incubation cabinet at approximately 20° C. and a relative atmospheric humidity of 100%. The test is evaluated 3 days after the inoculation. 0% means an efficacy which corresponds to that of the untreated control while an efficacy of 100% means that no disease is observed.

Structure (SMILES) | Efficacy in % found (application rate 0.5 ppm a.i.) | Efficacy in % found (application rate 1 ppm a.i.) | Efficacy in % found (application rate 2 ppm a.i.) | Efficacy in % found (application rate 0.25 ppm a.i.)
Fc1ccc([C@]2(Cn3cncn3)O[C@H]2c2ccccc2Cl)cc1 (racemic) [Epoxiconazole, epoxiconazole] | 41% | 53% | 59% | –
OC(Cc1ccccc1Cl)(Cn1[nH]cnc1=S)C1(Cl)CC1 (stereo not drawn) [(A) Prothioconazole, 2-[2-(1-chlorocyclopropyl)-3-(2-chlorophenyl)-2-hydroxypropyl]-1,2-dihydro-3H-1,2,4-triazole-3-thione] | 0% | 18% | 41% | –
Cn1cc(C(=O)Nc2ccccc2-c2cc(F)c(F)c(F)c2)c(C(F)F)n1 [(B) Fluxapyroxad, 3-(difluoromethyl)-1-methyl-N-(3′,4′,5′-trifluorobiphenyl-2-yl)pyrazole-4-carboxamide] | 65% | 87% | – | 62%

— patent US9167818B2, “Active compounds combinations comprising prothioconazole and fluxapyroxad” (BAYER CROPSCIENCE AG, priority 2010, dated 2015)
